Data reported in patent US11696893B2, “Preparation comprising vonoprazan” (Takeda Pharmaceutical Company Limited, priority 2017, dated 2023).

Columns and labels:
Format in all cases: physicochemical
[1] = Dissolution amount of compound A in saturated organic acid; conditions: room temperature, shaken 1 hr
Description: Citric acid, succinic acid, fumaric acid or malic acid was dissolved and saturated in the Japanese Pharmacopoeia dissolution test 2nd fluid (JP2), and filtered. Successively, compound A (0.4 g) was added to a filtrate (10 mL) saturated with an organic acid and the mixture was shaken at room temperature for 1 hr. The solution after shaking was filtered, diluted 50-fold with the Japanese Pharmacopoeia dissolution test 2nd fluid, and the diluted solution was diluted 20-fold with the Japanese Pharmacopoeia dissolution test 2nd fluid. The solution obtained by diluting twice was subjected to HPLC measurement and the dissolution amount of compound A was measured.

[2] = Influence of concentration of fumaric acid or monosodium fumarate on dissolution amount of compound A (common ion effect); conditions: JP2 with various concentrations of fumaric acid or monosodium fumarate, room temperature, 1 hr; FIG. 11
Description: Solutions containing various concentrations of fumaric acid or monosodium fumarate dissolved in the Japanese Pharmacopoeia dissolution test 2nd fluid were prepared. Then, 50 mg of compound A was measured and charged in a 10 mL plastic tube and each of the above-mentioned solution (5 mL) was added and the mixture was vigorously shaken at room temperature for 1 hr. The suspension after shaking was filtered, diluted 100-fold and subjected to HPLC measurement. The dissolution amount of compound A was measured.

[3] = Dissolution profile of compound A, fumaric acid, succinic acid (Rotating Basket 100 rpm); conditions: water-insoluble polymer coated particle of Example 1 or coagulation inhibiting substance coated particle of Reference Example 3, 60 mg compound A; FIG. 12-13
Description: The water-insoluble polymer coated particle of Example 1 or the coagulation inhibiting substance coated particle of Reference Example 3, each of which contained 60 mg of compound A, was subjected to a dissolution test using Rotating Basket at 100 rpm and in the same manner as in Experimental Example 1. The dissolution amounts of fumaric acid or succinic acid as well as compound A were also measured. As for fumaric acid and succinic acid, the residual rate of each organic acid in the particles were inversely calculated from the dissolution rate, and the value of the maximum dissolution amount was normalized assuming 0% of the residual rate.

[4] = Confirmation of dissolution control mechanism-1 (dissolution test, paddle 100 rpm); conditions: water-soluble polymer coated particle 3 of Reference Example 2, FIG. 14
Description: The water-soluble polymer coated particle 3 obtained in Reference Example 2 and containing 60 mg of compound A was subjected to a dissolution test using paddle at 100 rpm and in the same manner as in Experimental Example 1. The dissolution media was the Japanese Pharmacopoeia dissolution test 2nd fluid, the Japanese Pharmacopoeia dissolution test 2nd fluid added with 10% (W/W) sodium carbonate, the Japanese Pharmacopoeia dissolution test 2nd fluid added with 13% (W/W) succinic acid, or the Japanese Pharmacopoeia dissolution test 2nd fluid added with 0.6% (W/W) fumaric acid.

concentration (dissolution amount of compound A) ([1]; JP2, saturated organic acid: none): 5.22 µg·mL
concentration (dissolution amount of compound A) ([1]; JP2 saturated with citric acid): 26.30 µg·mL
concentration (dissolution amount of compound A) ([1]; JP2 saturated with fumaric acid, listed as Compound A, monofumarate): low concentration
concentration (dissolution amount of compound A) ([1]; JP2 saturated with fumaric acid, monofumarate): 0.67 µg·mL
concentration (dissolution amount of compound A) ([1]; JP2 saturated with malic acid): 26.64 µg·mL
dissolution of compound A ([4]; JP2 added with 10% (W/W) sodium carbonate): suppressed dissolution
Compound: CNCc1cc(-c2ccccc2F)n(S(=O)(=O)c2cccnc2)c1.O=C(O)/C=C/C(=O)O [compound A, 1-[5-(2-Fluorophenyl)-1-(pyridin-3-ylsulfonyl)-1H-pyrrol-3-yl]-N-methylmethanamine monofumarate]
dissolution amount of compound A [2]: influenced by the concentration of fumaric acid or monosodium fumarate
start of dissolution of compound A relative to organic acid [3]: started after dissolution of fumaric acid or succinic acid
dissolution of compound A ([4]; JP2 added with 13% (W/W) succinic acid or 0.6% (W/W) fumaric acid): did not show a dissolution suppressive action
